One series relates to IL-6. Nature of the series: Inhibition of IL-6 production by mouse peritoneal macrophages (ELISA). The class given is cell-based, mice. As to conditions: Macrophage, 48 hours, read-out: Inhibitory rate (%) IL-6; for inhibition at 10 µg/mL: 10 μg/ml. The procedure: (§1) C57BL/6CrSlc male mice were intraperitoneally injected with 2.0 ml of 3% Brewer tioglycolate medium. Three days later, macrophages were collected from the abdominal cavity with 5.0 ml Hank's balanced salt solution, and then equally divided into each well of a 48-well plate using RPMI 1640 medium supplemented with 10% FBS (Fetal Bovine Serum), followed by incubation in a CO2 incubator for 1 hour. After the macrophages adhered to the walls of the plate, they were incubated for 48 hours in the presence of a test compound with different concentrations. Following the incubation, the supernatant was collected from each well, assayed for IL-6, IL-10 and L-12 by ELISA to determine inhibitory rates against the production of these interleukins.
A general note: In an ELISA, binding on a coated surface is turned into a signal by an enzyme label.

The test system of the next series is IL-10. Nature of the series: Inhibition of IL-10 production by mouse peritoneal macrophages (ELISA). As to conditions: Macrophage, 48 hours, read-out: Inhibitory rate (%) IL-10; for inhibition at 10 µg/mL: 10 μg/ml. The format is cell-based, mice. As for the experimental part:
as §1

The target of the next series is T1, Thromboxane A2 Synthase (Rattus norvegicus, UniProt P49430).
T1 construct: centrifuged at 1,300 rpm for 7 minutes to obtain platelet rich plasma (PRP); from tissue; host or cells: platelet rich plasma (washed platelets) from the abdominal aorta blood of Sprague-Dawley rats
T1 sequence (P49430 1-533): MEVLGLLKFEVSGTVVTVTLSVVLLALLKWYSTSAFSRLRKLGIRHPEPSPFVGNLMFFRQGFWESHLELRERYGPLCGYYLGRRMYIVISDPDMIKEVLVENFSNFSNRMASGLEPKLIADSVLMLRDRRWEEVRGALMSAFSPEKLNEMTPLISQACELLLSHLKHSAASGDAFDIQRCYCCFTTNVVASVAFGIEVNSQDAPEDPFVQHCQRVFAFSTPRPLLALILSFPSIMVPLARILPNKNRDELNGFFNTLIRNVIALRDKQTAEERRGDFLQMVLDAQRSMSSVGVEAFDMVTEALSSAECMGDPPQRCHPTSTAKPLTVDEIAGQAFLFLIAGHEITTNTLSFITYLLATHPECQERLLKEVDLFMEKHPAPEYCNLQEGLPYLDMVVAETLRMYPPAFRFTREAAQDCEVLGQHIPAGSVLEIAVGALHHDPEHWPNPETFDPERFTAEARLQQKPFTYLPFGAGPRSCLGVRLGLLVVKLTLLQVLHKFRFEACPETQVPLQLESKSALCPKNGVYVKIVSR
The series is described as follows: Inhibitory effect on thromboxane A2 synthase: TXB2 in rat platelet rich plasma. The format is cell-based, rats. As to conditions: 10 μmol/l, rat PRP. The procedure: Eight week old Sprague-Dawley male rats were used in this example. The rats were anesthetized with pentobarbital sodium. The blood was collected from the abdominal aorta using a heparinized syringe, and centrifuged at 1,300 rpm for 7 minutes to obtain platelet rich plasma (PRP). PRP was suspended in an equivalent volume of a buffer containing 25 mmol/l Tris-HCl, 130 mmol/l sodium chloride and 0.3 mmol/l EDTA (pH 7.4)(buffer A), followed by centrifugation at 4° C., at 1,500 rpm for 5 minutes. This procedure was repeated twice, and PRP was finally suspended in a buffer containing 25 mmol/l Tris-HCl, 130 mmol/l, 0.1% glucose and 0.1% albumin (pH7.4)(buffer B).
5×10^6 cells/mm^3 PRP preparation in buffer B was divided into each well of a 96-well plate in an amount of 150 μl/well. Each test substance was prepared at a final concentration of 10 μmol/l and added to the PRP preparation in an amount of 50 μl/well. Immediately after addition of the test substance, 5 μl of an aggregation-inducing agent, type IV collagen (1 mg/ml) or arachidonic acid (50 mmol/l), was added and incubated for 10 minutes. 20 μl of an EDTA-indomethacin solution was added to the each well to stop the reaction. The supernatant was assayed for thromboxane B2 (TXB2), stable metabolite of thromboxane A2 (TXA2), using a TXB2 measurement kit (Cayman).

Series [1] concerns Rats with Minimal Change Nephrosis. Nature of the series: Inhibitory effects on urinary proteins in rats with minimal change nephrosis (Puromycin Aminonucleoside). The format is in vivo. The settings on record: S.D. male rats, PA 50 mg/kg i.v., test drug 2 mg/kg/day from day 6 to day 11, assayed at day 11. The procedure: Six week old S.D. male rats were intravenously injected with Puromycin Aminonucleoside (PA; SIGMA)at a dose of 50 mg/kg so as to develop nephrosis. Six days after PA treatment, the rats were administered with a test drug at a dose of 2 mg/kg/day by day 11. Each rat was assayed for an excreted urinary protein level at day 11 to determine an inhibitory rate.

In a further series the test system is IL-12. Nature of the series: Inhibition of IL-12 production by mouse peritoneal macrophages (ELISA). The class given is cell-based, mice. The settings on record: Macrophage, 48 hours, read-out: Inhibitory rate (%) IL-12; for inhibition at 10 µg/mL: 10 μg/ml; for inhibition at 10 µM: 10 μM/L. The procedure: as §1

By melting point is commonly meant the temperature, or range, at which the solid turns liquid.

Each structure is given as a SMILES string. Read-outs that look alike come from different tables or passages of the source.

For `Cl.O=C(O)CCc1ccc(/C=C/C(=O)NCc2cccnc2)cc1`, the melting point was 212 °C.

`CCOC(=O)COc1ccc(/C=C/C(=O)NCc2cccnc2)cc1` [Example 1, Ethyl [4-[(E)-2-[N-(3-Pyridylmethyl)carbamoyl]ethenyl]phenoxy]acetate]: the inhibition at 1 µg/mL turned out to be 29.3% in the series on IL-6 (1 μg/ml), 2.1% in the series with IL-10 (1 μg/ml) and 32.4% with IL-12 (1 μg/ml). Also, the inhibition at 5 µg/mL in the series with IL-6 (5 μg/ml) came out at 34.5%; in the series on IL-10 (5 μg/ml) it was 29.1%; in the series on IL-12 (5 μg/ml), 39.5%. Further, the inhibition at 10 µg/mL came to 40.4% with IL-6, 23.7% in the series with IL-10 and 64.6% in the series on IL-12. The inhibition at 10 µM on Thromboxane A2 Synthase (arachidonic acid, 10 minutes, read-out: TXB2 induced by arachidonic acid (Inhibitory rate; %)) was 67%; on Thromboxane A2 Synthase (type IV collagen, 10 minutes, read-out: TXB2 induced by collagen (Inhibitory rate; %)) it was 32%; at Thromboxane A2 Synthase (summary of Table 3, read-out: inhibitory activity against TXA2 production mediated by collagen or arachidonate) it was at least 50%. In series [1], the “Inhibitory rate (%) of excreted urinary protein level” value is recorded as 41%.

On to `Cl.O=C(O)COc1ccc(/C=C/C(=O)NCc2cccnc2)cc1` [Example 36, [4-[(E)-2-[N-(3-pyridylmethyl)carbamoyl]ethenyl]phenoxy]acetic acid hydrochloride], for which the inhibition at 10 µg/mL with IL-6 is 53.1%; in the series with IL-10, -45.8%; in the series on IL-12 it was 52.1%. In addition, the inhibition at 50 µg/mL was 56.7% in the series with IL-6 (50 μg/ml), -13% in the series with IL-10 (50 μg/ml) and 82.1% in the series on IL-12 (50 μg/ml). The inhibition at 100 µg/mL in the series with IL-6 (100 μg/ml) came to 21.7%; in the series with IL-10 (100 μg/ml), 22.2%; in the series on IL-12 (100 μg/ml), 64%. Besides, the “Inhibitory rate (%) of excreted urinary protein level” value in series [1] amounted to 29%.

Consider `C/C(=C\C(=O)NCc1cccnc1)c1ccc(OCC(=O)O)cc1` [Example 86, [4-[(E)-1-methyl-2-[N-(3-pyridylmethyl)carbamoyl]ethenyl]phenoxy]acetic acid], for which the melting point was in the range of 228 to 229 °C. In the series with IL-12, the inhibition at 10 µM was 48.4%.

With `O=C(O)CSc1ccc(/C=C/C(=O)NCc2cccnc2)cc1` [Example 89, [[4-[(E)-2-[N-(3-pyridylmethyl)carbamoyl]ethenyl]phenyl]thio]acetic acid], the melting point lay in the range of 160 to 161 °C. For the same compound, the inhibition at 10 µM in the series on IL-12 came to 51.1%.

Values taken from patent US6413995B1, “Cinnamamide derivatives and drug compositions containing the same” (Tsumura & Co., priority 1999, dated 2002).
